Experimental findings from the supplement of paper PMC7801607 are described below.

In general, pIC50 refers to −log10 of the IC50, conventionally taken in molar units.

Each structure is given as a SMILES string. pIC50: −log10 of the molar value.

In the first assay the test system is Plasmodium falciparum Dd2 asexual blood stage.
In the case of `Nc1cnn(C2OC(CO)C(O)C2O)c(=O)n1` (stereo not drawn), the pIC50 was below 5.30.

Take `CCOCc1nc2c(N)nc3ccccc3c2n1CC(C)(C)O`: the pIC50 was below 5.30. Still for that read-out and setting: then `O=C(O)CSc1cc(NS(=O)(=O)c2cccc3cccnc23)c2ccccc2c1O`, with below 5.30. As to `NC1C2CC3CC(C2)CC1C3` (stereo not drawn), the pIC50 was below 5.30. On the same count and under the same terms, the figure for `C=C[C@]1(C)C[C@@H](OC(=O)CS[C@@H]2C[C@H]3CC[C@@H](C2)N3C)[C@]2(C)[C@H](C)CC[C@]3(CCC(=O)[C@H]32)[C@@H](C)[C@@H]1O` is below 5.30; for `CN(C)[C@@H]1C(=O)C(C(N)=O)=C(O)[C@@]2(O)C(=O)C3=C(O)c4c(O)c(NC(=O)CN5CCCC5)cc(F)c4C[C@H]3C[C@@H]12` it is below 5.30. Consider `Fc1ccc(-c2nc(-c3c[nH]c4ccc(Br)cc34)[nH]c2-c2ccc(F)cc2)cc1`, for which the pIC50 is 5.30. On the same count and under the same terms, the figure for `C=CCN(C(=O)OCc1ccc([N+](=O)[O-])cc1)C1CCN(CC[C@](C)(CN(C)S(=O)(=O)c2ccccc2)c2ccccc2)CC1` is below 5.30; for `O=C(Nc1nnc(-c2ccc(Cl)cc2)o1)c1nc2ccccc2s1` it is below 5.30; for `Nc1cc(N)c2nc(-c3ccccc3)c(Nc3ccc(F)cc3)nc2c1` it is 5.39. The same measure, in the same setting: the figure for `CC(C)(C)NC(=O)N[C@H](C(=O)N1C[C@H]2[C@@H]([C@H]1C(=O)NC(CC1CCC1)C(=O)C(N)=O)C2(C)C)C(C)(C)C` (stereo partly drawn) is below 5.30; for `CCN1CCN(Cc2nc3ccc([N+](=O)[O-])cc3c(=O)n2-c2ccccc2F)CC1` it is below 5.30; for `CCCCN1C[C@H](O)[C@@H](O)[C@H](O)[C@H]1CO` it is below 5.30.

The compound `O=c1cc(OCc2ccccc2)ccn1Cc1ccccc1` had a pIC50 below 5.30. On the same count and under the same terms, then `O=C(CP(=O)(O)O)NCCc1cccc(Oc2ccccc2)c1`, with below 5.30; and `CCc1cc(CCCOc2c(C)cc(-c3noc(C(F)(F)F)n3)cc2C)on1`, with below 5.30; and `CCC[C@H](NC(=O)[C@@H]1[C@H]2CCC[C@H]2CN1C(=O)[C@@H](NC(=O)[C@@H](NC(=O)c1cnccn1)C1CCCCC1)C(C)(C)C)C(=O)C(=O)NC1CC1`, with below 5.30. Same read-out and setting: the figure for `COCCn1cnc2c(=O)[nH]c(Nc3ccccc3)nc21` is below 5.30; for `C[C@H](NC(=O)C(=O)Nc1ccccc1C(C)(C)C)C(=O)N[C@@H](CC(=O)O)C(=O)COc1c(F)c(F)cc(F)c1F` it is below 5.30; for `CCCCCCCCCN1C[C@@H](O)[C@H](O)[C@@H](O)[C@@H]1CO` it is below 5.30. Same read-out and setting: then `[N-]=[N+]=N[C@H]1C[C@H](n2ccc(=O)[nH]c2=O)O[C@@H]1CO`, with below 5.30; and `O=S(=O)(Nc1cccc2cccnc12)c1ccccc1`, with below 5.30.

In turn, `Cc1onc(-c2ccccc2)c1-c1ccc(S(N)(=O)=O)cc1` showed a pIC50 below 5.30.

Take `Cc1ccc(Oc2ccccc2-c2csc(NC3=NCCCN3)n2)c(C)c1`: the pIC50 was below 5.30. The same measure, in the same setting: the figure for `CN(C)c1[nH]c(=O)ncc1F` is below 5.30; for `O=S(=O)(Nc1ccc(O)cc1)c1cccc2cccnc12` it is below 5.30; for `COc1ccc(C2CNC(=O)C2)cc1OC1CCCC1` (stereo not drawn) it is below 5.30. `Nc1cccc(-c2nc(N)nc(NC3Cc4ccccc4C3)n2)c1`: the pIC50 was below 5.30. Same read-out and setting: then `CCc1c(OCC2CCC2)c2cc(F)ccc2[nH]c1=O`, with below 5.30. On the same count and under the same terms, the figure for `O=C(N[C@H](Cc1cccc2ccccc12)C(=O)NCCc1c[nH]cn1)C1Cc2ccccc2C1` is below 5.30; for `CCOc1ccc(/C=N/NC(=O)C2CC2c2ccc(C(C)(C)C)cc2)cc1OCC` (stereo not drawn) it is below 5.30. On the same count and under the same terms, the figure for `O=S(=O)(Nc1ccc(-n2cccc2)cc1)c1ccc(Cl)c(Cl)c1` is below 5.30; for `CCCCc1ccc(-c2cc(C(=O)O)cc(-c3ccc(Cl)cc3)n2)cc1` it is below 5.30.

In the case of `O=C(O)C[C@H]1CC[C@H](c2ccc(-c3ccc(Nc4ccc(C(F)(F)F)nc4)cn3)cc2)CC1`, the pIC50 is below 5.30.

In turn, `CO[C@@]1(NC(=O)Cc2cccs2)C(=O)N2C(C(=O)O)=C(COC(N)=O)CS[C@@H]21` gave a pIC50 below 5.30. On the same count and under the same terms, the figure for `CN(C(=O)C1(c2ccc(Cl)cc2)CCC1)c1ccccc1` is below 5.30; for `Nc1nc(-c2ccccc2)nc2[nH]nc(Nc3ccc(C(F)(F)F)cc3)c12` it is 5.39. Same read-out and setting: the figure for `CC1(C)C[C@H]1C(=O)N/C(=C\CCCCSC[C@@H](N)C(=O)O)C(=O)O` is below 5.30. Same read-out and setting: then `O=[N+]([O-])c1cn(Cc2nc(O)nc(O)c2Br)cn1`, with below 5.30. For `COc1ccccc1NC(=O)c1ccccc1Sc1ccc([N+](=O)[O-])cc1`, the pIC50 was below 5.30. The same measure, in the same setting: then `O=C(O)c1cc(-c2ccccc2)nc2ccccc12`, with below 5.30; and `Fc1ccc2c(/C=C/c3nnn[nH]3)c[nH]c2c1`, with below 5.30; and `NC[C@H]1OB(O)c2c(OCCCO)cccc21`, with below 5.30. Same read-out and setting: then `COc1ccc(-n2cnc3cc(NCc4ccco4)ccc32)cc1`, with below 5.30. Turning to `Cn1c2ccccc2c(=O)c2c(O)cccc21`, the pIC50 was below 5.30. Turning to `CC(C)Oc1ccc(-n2cnc3cc(/C=C\c4ccc(C(C)(C)O)cc4)ccc32)cc1`, the pIC50 was below 5.30.

`CC(Oc1ccc(Cl)cc1Cl)C(=O)NCc1ccc2c(c1)OCO2` (stereo not drawn): the pIC50 is below 5.30. Turning to `O=C1[C@H](CC[C@H](O)c2ccc(F)cc2)[C@@H](c2ccc(O)cc2)N1c1ccc(F)cc1`, the pIC50 is below 5.30. On the same count and under the same terms, then `Nc1nc(=O)c(Br)c(-c2cccc(Cl)c2)[nH]1`, with below 5.30; and `O=c1[nH]c(=O)n(Cc2cccc(Oc3ccccc3)c2)cc1Nc1ccccc1`, with below 5.30. Still for that read-out and setting: the figure for `Nc1nc2c(ncn2/C=C2/CC2(CO)CO)c(=O)[nH]1` is below 5.30; for `O=C(Cc1ccccc1F)Nc1nc2ccccc2[nH]1` it is below 5.30; for `CO/N=C(\C(=O)N[C@@H]1C(=O)N2C(C(=O)OCOC(=O)C(C)(C)C)=C(/C=C\c3scnc3C)CS[C@H]12)c1csc(N)n1` it is below 5.30.

Consider `CCc1ccc(C2CC(C(F)(F)F)n3ncc(C(=O)NCc4ccc(OC)cc4)c3N2)cc1` (stereo not drawn), for which the pIC50 is below 5.30. Same read-out and setting: the figure for `O=c1nc(N2CCN(CC3CCCCC3)CC2)sc2c([N+](=O)[O-])cc(C(F)(F)F)cc12` is below 5.30; for `CCc1oc2ccccc2c1C(=O)c1ccc(O)cc1` it is below 5.30. The same measure, in the same setting: then `C[C@H]1COc2c(N3CCN(C)CC3)c(F)cc3c(=O)c(C(=O)O)cn1c23`, with below 5.30; and `COc1ccc(OCc2ccc(COc3c(Cl)cccc3Cl)cc2)c(Cl)c1`, with below 5.30. On the same count and under the same terms, then `CC(C)N(c1cc(-c2ccccc2)sc1C(=O)O)C(=O)[C@H]1CC[C@H](C)CC1`, with below 5.30. As to `Oc1ccc2[nH]c(-c3ccccc3)nc2c1`, the pIC50 is below 5.30. The same measure, in the same setting: then `Nc1cc(-c2nc3ccccc3[nH]2)n[nH]c1=O`, with below 5.30. As for `c1cnc(NCc2ccc(CNc3ncccn3)cc2)nc1`, the pIC50 was below 5.30. Same read-out and setting: then `CC1(C)CC(NC(=O)C(=O)Nc2ccc(Cl)cc2)CC(C)(C)N1`, with below 5.30.

In turn, `CC[C@@]1(O)C(=O)OCc2c1cc1n(c2=O)Cc2cc3c(CN(C)C)c(O)ccc3nc2-1` had a pIC50 of 5.39. On the same count and under the same terms, the figure for `CN1C(=O)C(c2ccccc2)C(=O)N(c2ccccc2)c2cc(C(F)(F)F)ccc21` (stereo not drawn) is below 5.30; for `C=CCc1cc(Cc2cnc(N)nc2N)cc(OC)c1O` it is below 5.30; for `CSc1ccc2c(c1)C(N1CCN(C)CC1)Cc1ccccc1S2` (stereo not drawn) it is below 5.30. The same measure, in the same setting: the figure for `CC(C)(C)c1cc(CCC(=O)N2CCC2)cc(C(C)(C)C)c1O` is below 5.30; for `COc1ccc(C[C@@H](C)[C@@H](C)Cc2ccc(OC)c(OC)c2)cc1OC` it is below 5.30. On the same count and under the same terms, the figure for `O=C1c2cccc3cccc(c23)C(=O)N1CC1CO1` (stereo not drawn) is 5.37; for `CC(Cc1ccccc1)C(=O)Nc1ccc(Cl)cc1C(=O)O` (stereo not drawn) it is below 5.30; for `O=C(O)c1sccc1S(=O)(=O)n1ccc2cc(Br)ccc21` it is below 5.30. Regarding `C[C@H](Cn1cnc2c(N)ncnc21)OCP(=O)(O)O`, the pIC50 is below 5.30.

For `COc1cc(Cc2cnc(N)nc2N)cc(OC)c1OC`, the pIC50 is below 5.30. Same read-out and setting: then `Nc1nc(N)c2c(Sc3ccccc3)cccc2n1`, with below 5.30; and `CC(C)(C)c1cc(C(=O)/C(C#N)=N/Nc2cccc(Cl)c2)no1`, with below 5.30. Same read-out and setting: the figure for `CCOC(=O)N1CCN(c2ccc(Cl)cc2)CC1` is below 5.30; for `CC1(C)[C@H](C(=O)O)N2C(=O)C[C@H]2S1(=O)=O` it is below 5.30. For the compound `Cc1ccccc1NC(=O)Nc1cccc([N+](=O)[O-])c1`, the pIC50 was below 5.30. Still for that read-out and setting: then `NC(=O)c1ccc(I)c([N+](=O)[O-])c1`, with below 5.30; and `CN(Cc1ccc(C(C)(C)C)cc1)Cc1cccc2ccccc12`, with below 5.30. On the same count and under the same terms, the figure for `COC(=O)Nc1nc2ccccc2[nH]1` is below 5.30. Still for that read-out and setting: then `Cc1cccc(CC(=O)N[C@H]2CCOC2=O)c1`, with below 5.30; and `O=S(=O)(Nc1ccccc1)c1ccc(NC(=S)Nc2ccccc2)cc1`, with below 5.30; and `Cc1cc(CCOc2c(C)cc(-c3nnn(C)n3)cc2C)on1`, with below 5.30. `O=C(CC1Sc2ncnn2C1=O)Nc1ccc(Br)cc1` (stereo not drawn) gave a pIC50 below 5.30. On the same count and under the same terms, then `Cc1nc(-c2ccc(C3N(C)c4ccc(F)cc4C(=O)N3c3ccccc3)s2)cs1` (stereo not drawn), with below 5.30; and `Cc1cc(Nc2ccc(F)cc2)nc(SCc2nc3ccccc3[nH]2)n1`, with below 5.30.

Another assay deals with Plasmodium falciparum NF54 asexual blood stage.
`Nc1cnn(C2OC(CO)C(O)C2O)c(=O)n1` (stereo not drawn) gave a pIC50 below 5.22. On the same count and under the same terms, the figure for `CCOCc1nc2c(N)nc3ccccc3c2n1CC(C)(C)O` is below 5.22; for `O=C(O)CSc1cc(NS(=O)(=O)c2cccc3cccnc23)c2ccccc2c1O` it is 5.59. Same read-out and setting: then `NC1C2CC3CC(C2)CC1C3` (stereo not drawn), with 5.24; and `C=C[C@]1(C)C[C@@H](OC(=O)CS[C@@H]2C[C@H]3CC[C@@H](C2)N3C)[C@]2(C)[C@H](C)CC[C@]3(CCC(=O)[C@H]32)[C@@H](C)[C@@H]1O`, with below 5.22. The compound `CN(C)[C@@H]1C(=O)C(C(N)=O)=C(O)[C@@]2(O)C(=O)C3=C(O)c4c(O)c(NC(=O)CN5CCCC5)cc(F)c4C[C@H]3C[C@@H]12` gave a pIC50 of 5.82. On to `Fc1ccc(-c2nc(-c3c[nH]c4ccc(Br)cc34)[nH]c2-c2ccc(F)cc2)cc1`, for which the pIC50 is 6.12. This pIC50 lies 0.30 log units higher than the previous one. On the same count and under the same terms, the figure for `C=CCN(C(=O)OCc1ccc([N+](=O)[O-])cc1)C1CCN(CC[C@](C)(CN(C)S(=O)(=O)c2ccccc2)c2ccccc2)CC1` is below 5.22; for `O=C(Nc1nnc(-c2ccc(Cl)cc2)o1)c1nc2ccccc2s1` it is below 5.22.

In the case of `Nc1cc(N)c2nc(-c3ccccc3)c(Nc3ccc(F)cc3)nc2c1`, the pIC50 was 5.66.
